For assay [1], the system named is U251 (human glioblastoma). In words: In vitro growth inhibition screen (sulphorhodamine B), U251. It is filed as cell-based. The note with it: U251 cells, incubated for 48 hours, sulphorhodamine B dye; read-out: GI50 (concentration which inhibits the cell growth by 50%), U251 Human glioblastoma astrocytoma. The procedure: (§1) Each agent was tested over a broad concentration range (ten-fold dilutions starting from ≧100 μM to 10 nM) against 6 human cancer cell lines which was comprised of different tumor types. These are DU145 (prostate carcinoma), HT29 (colorectal adenocarcinoma), LOX (melanoma), MCF7 (breast adenocarcinoma), MCF7ADR (adriamycin resistant breast adenocarcinoma), and U251 (human glioblastoma). A standard compound doxorubicin was tested in each assay as a positive control. The cells were maintained in growing condition in RPMI 1640 medium containing 10% fetal calf serum and incubated at 37° C. under 5% CO2 atmosphere. All cell lines were inoculated onto a series of standard 96-well microtitre plate on day zero, followed by twenty four-hour incubation in the absence of test compound. The inoculation densities in the screen were as per Monk et al., (1991) J. Natl. Cancer Inst., 83, 757-766. All NCEs were dissolved in DMSO and diluted further in culture medium. An aliquot of each dilution was added to the growing cells in 96 well plates and incubated for 48 hours. After incubation, the assay was terminated by adding 50 μL of trichloroacetic acid (TCA) and incubating at 4° C. for 30 min. The precipitated cells were washed and stained with sulphorhodamine B dye for 30 min and the excess dye was washed off with acetic acid. Adsorbed dye was solubilised in Tris base (alkaline pH) and quantitated by measuring the OD at […] in ELISA READER. GI50 (concentration which inhibits the cell growth by 50%) was calculated according to Boyd and Paull, (1995) Drug Dev. Res., 34, 91-109.
Background: Sulforhodamine B stains cellular protein and so reports cell mass.

The test system of assay [2] is MCF7ADR (adriamycin resistant breast adenocarcinoma). The assay is described as follows: In vitro growth inhibition screen (sulphorhodamine B), MCF7ADR. The following applies: MCF7ADR cells, incubated for 48 hours, sulphorhodamine B dye; read-out: GI50 (concentration which inhibits the cell growth by 50%), MCF7ADR Adriamycin Resistant Breast adenocarcinoma. It is filed as cell-based, human. The procedure: as §1

The subject of assay [3] is LOX (melanoma). The assay is described as follows: In vitro growth inhibition screen (sulphorhodamine B), LOX. It is filed as cell-based, human. The following applies: LOX cells, incubated for 48 hours, sulphorhodamine B dye; read-out: GI50 (concentration which inhibits the cell growth by 50%), LOX Melanoma. The procedure: as §1
Assay [4] deals with DU145 (prostate carcinoma). In words: In vitro growth inhibition screen (sulphorhodamine B), DU145. The assay is classed as cell-based, human. The note with it: DU145 cells, incubated for 48 hours, sulphorhodamine B dye; read-out: GI50 (concentration which inhibits the cell growth by 50%), DU145 Prostate carcinoma. The procedure:
as §1

Assay [5] deals with MCF7 (breast adenocarcinoma). In words: In vitro growth inhibition screen (sulphorhodamine B), MCF7. It is filed as cell-based, human. The following applies: MCF7 cells, incubated for 48 hours, sulphorhodamine B dye; read-out: GI50 (concentration which inhibits the cell growth by 50%), MCF7 Breast adenocarcinoma. The procedure: as §1
Assay [6] concerns HT29 (colorectal adenocarcinoma). The assay is described as follows: In vitro growth inhibition screen (sulphorhodamine B), HT29. The assay is classed as cell-based, human. The note with it: HT29 cells, incubated for 48 hours, sulphorhodamine B dye; read-out: GI50 (concentration which inhibits the cell growth by 50%), HT29 Colorectal adenocarcinoma. The procedure:
as §1

Regarding “2,3,4-Tri-O-benzyl-6-(trifluoromethylacetamido)-N-propyl-D-gluco-δ-lactam [Compound No. 51]”, the GI50 in assay [1] was determined as 10.3 µM; in assay [2] it was 16 µM; in assay [3], 13.6 µM; in assay [4], 43.7 µM; in assay [5], 9.9 µM; in assay [6] it was 6.8 µM.
As for “2,3,4-Tri-O-benzyl-6-N-[3-{2-iminocarbonyl aminoethyl)-indolyl]-N-propyl-D-gluco-δ-lactam [Compound No. 78]”, the GI50 in assay [1] turned out to be 4.3 µM; in assay [2] it was 29.8 µM; in assay [3], 45.1 µM; in assay [4], 57.3 µM; in assay [5], 9.2 µM; in assay [6] it was 33.6 µM.
Regarding “2,3,4-Tri-O-benzyl-6-N-{[isopropyl]aminocarbonylamino}-1,5-dideoxy-1,5-imino-N-propyl glucitol [Compound No. 38]”, the GI50 was greater than 380 µM in assay [1]; greater than 380 µM in assay [2]; 281 µM in assay [3]; 98.4 µM in assay [4]; greater than 380 µM in assay [5]; 35 µM in assay [6].
Turning to “6-N-{2-[1,5-Dideoxy-1,5-imino-glucit-6-ol]acetyl}-N-propyl-D-gluco-δ-lactam [Compound No. 67]”, the GI50 in assay [1] worked out at 91.5 µM; in assay [2], 75.4 µM; in assay [3], 67.6 µM; in assay [4] it was 81.6 µM; in assay [5], 107 µM; in assay [6], 106 µM.
In the case of `C=CCN1C(=O)[C@H](OCc2ccccc2)[C@@H](OCc2ccccc2)[C@H](OCc2ccccc2)[C@H]1COS(=O)(=O)c1ccc(C)cc1` [Compound No. 1, N-Allyl-6-O-(p-toluenesulphonyl)-2,3,4-tri-O-benzyl-D-gluco-δ-lactam], the GI50 in assay [1] was greater than 624 µM; in assay [2], greater than 624 µM; in assay [3], greater than 624 µM; in assay [4] it was 364 µM; in assay [5] it was 378 µM; in assay [6], 203 µM.
With `CCCN1C(=O)[C@H](OCc2ccccc2)[C@@H](OCc2ccccc2)[C@H](OCc2ccccc2)[C@H]1CNC(=S)Nc1ccc2ccccc2c1` [Compound No. 2, 2,3,4-Tri-O-benzyl-6-N-{[2-naphthyl]aminothiocarbonylamino}-N-propyl-D-gluco-δ-lactam], the GI50 in assay [1] was 172 µM; in assay [2] it was 229 µM; in assay [3], 40.9 µM; in assay [4], 151 µM; in assay [5], 175 µM; in assay [6], 137 µM.
As to `CCCN1C(=O)C(OCc2ccccc2)C(OCc2ccccc2)C(OCc2ccccc2)C1CNC(=O)Nc1ccc(Cl)cc1` [Compound No. 3, 2,3,4-Tri-O-benzyl-6-N-{[4-chlorophenyl]aminocarbonylamino}-N-propyl-D-gluco-δ-lactam], the GI50 in assay [1] was 1.1 µM; in assay [2], 8.2 µM; in assay [3], 2.1 µM; in assay [4], 2 µM; in assay [5], 0.8 µM; in assay [6] it was 6.1 µM.
Take `CCCN1C(=O)C(OCc2ccccc2)C(OCc2ccccc2)C(OCc2ccccc2)C1CNC(=O)Nc1ccc(OC)cc1` [Compound No. 4, 2,3,4-Tri-O-benzyl-6-N-{[p-methoxyphenyl]aminocarbonylamino}-N-propyl-D-gluco-δ-lactam]: the GI50 in assay [1] amounted to 16.8 µM; in assay [2], 115 µM; in assay [3], 112 µM; in assay [4], 116 µM; in assay [5], 13.6 µM; in assay [6], 49.4 µM.
Consider `CCCN1C(=O)C(OCc2ccccc2)C(OCc2ccccc2)C(OCc2ccccc2)C1CNC(=O)Nc1ccc([N+](=O)[O-])cc1` [Compound No. 5, 2,3,4-Tri-O-benzyl-6-N-{[p-nitrophenyl]aminocarbonylamino}-N-propyl-D-gluco-δ-lactam], for which the GI50 in assay [1] is 46.9 µM; in assay [2], 33.9 µM; in assay [3], 10.4 µM; in assay [4] it was 29.6 µM; in assay [5] it was 11.4 µM; in assay [6] it was 14.6 µM.
`CCCN1C(=O)[C@H](OCc2ccccc2)[C@@H](OCc2ccccc2)[C@H](OCc2ccccc2)[C@H]1CNC(=O)Nc1ccc(C)cc1` [Compound No. 6, 2,3,4-Tri-O-benzyl-6-N-{[p-tolyl]aminocarbonylamino}-N-propyl-D-gluco-δ-lactam]: the GI50 in assay [1] was found to be 82.3 µM; in assay [2], 110 µM; in assay [3], 67.4 µM; in assay [4], 50.1 µM; in assay [5], 433 µM; in assay [6], 47.2 µM.
For the compound `CCCN1C(=O)[C@H](OCc2ccccc2)[C@@H](OCc2ccccc2)[C@H](OCc2ccccc2)[C@H]1CNC(=O)Nc1ccc(Cl)cc1C(F)(F)F` [Compound No. 7, 2,3,4-Tri-O-benzyl-6-N-{[4-chloro-2-trifluoromethylphenyl]aminocarbonylamino}-N-propyl-D-gluco-δ-lactam], the GI50 is 63.5 µM in assay [1]; 58.4 µM in assay [2]; 10.8 µM in assay [3]; greater than 353 µM in assay [4]; greater than 353 µM in assay [5]; 68.6 µM in assay [6].
Take `CCCN1C(=O)[C@H](OCc2ccccc2)[C@@H](OCc2ccccc2)[C@H](OCc2ccccc2)[C@H]1CNC(=S)NC(C)C` [Compound No. 8, 2,3,4-Tri-O-benzyl-6-N-{[isopropyl]aminothiocarbonylamino}-N-propyl-D-gluco-δ-lactam]: the GI50 in assay [1] worked out at 2.5 µM; in assay [2], 0.6 µM; in assay [3], 2.2 µM; in assay [4], 3.4 µM; in assay [5], 1.3 µM; in assay [6], 9 µM.
On to `CCCN1C(=O)[C@H](OCc2ccccc2)[C@@H](OCc2ccccc2)[C@H](OCc2ccccc2)[C@H]1CNC(=S)Nc1ccccc1` [Compound No. 9, 2,3,4-Tri-O-benzyl-6-N-{[phenyl]aminothiocarbonylamino}-N-propyl-D-gluco-δ-lactam], for which the GI50 in assay [1] is 20.2 µM; in assay [2], 13.9 µM; in assay [3], 6.9 µM; in assay [4], 22.1 µM; in assay [5], 35.8 µM; in assay [6], 40 µM.
On to `CCCN1C(=O)[C@H](OCc2ccccc2)[C@@H](OCc2ccccc2)[C@H](OCc2ccccc2)[C@H]1CNC(=O)Nc1ccccc1` [Compound No. 10, 2,3,4-Tri-O-benzyl-6-N-{[phenyl]aminocarbonylamino}-N-propyl-D-gluco-δ-lactam], for which the GI50 was found to be 16.4 µM in assay [1]; 16.7 µM in assay [2]; 12.5 µM in assay [3]; 39.3 µM in assay [4]; 34.7 µM in assay [5]; 36.9 µM in assay [6].
Consider `CCCN1C(=O)[C@H](OCc2ccccc2)[C@@H](OCc2ccccc2)[C@H](OCc2ccccc2)[C@H]1CNC(=O)Nc1ccc(F)cc1` [Compound No. 11, 2,3,4-Tri-O-benzyl-6-N-{[p-fluorophenyl]aminocarbonylamino}-N-propyl-D-gluco-δ-lactam], for which the GI50 in assay [1] came out at 3.2 µM; in assay [2], 2.6 µM; in assay [3], 2.1 µM; in assay [4], 2.7 µM; in assay [5], 2.4 µM; in assay [6] it was 2.7 µM.
With `CCCN1C(=O)C(OCc2ccccc2)C(OCc2ccccc2)C(OCc2ccccc2)C1CNC(=O)NS(=O)(=O)c1ccc(Cl)cc1` [Compound No. 12, 2,3,4-Tri-O-benzyl-6-N-{[p-chlorophenylsulfonyl]aminocarbonylamino}-N-propyl-D-gluco-δ-lactam], the GI50 in assay [1] is 61.8 µM; in assay [2] it was 35 µM; in assay [3], 41.6 µM; in assay [4], 48.7 µM; in assay [5] it was 88.2 µM; in assay [6] it was 29.3 µM.
Consider `CCCN1C(=O)[C@H](OCc2ccccc2)[C@@H](OCc2ccccc2)[C@H](OCc2ccccc2)[C@H]1CNC(=O)Nc1cccc(Cl)c1` [Compound No. 13, 2,3,4-Tri-O-benzyl-6-N-{[3-chlorophenyl]aminocarbonylamino}-N-propyl-D-gluco-δ-lactam], for which the GI50 came out at 6.4 µM in assay [1]; 4.6 µM in assay [2]; 3.1 µM in assay [3]; 4.2 µM in assay [4]; 6.4 µM in assay [5]; 3.6 µM in assay [6].

The values are drawn from patent US20060241114A1, “Derivatives of azasugars as anticancer agents” (priority 2003, published 2006).
